The structures appear in SMILES notation. Entries after “also recorded” stand apart in the source; their conditions may differ. Read-outs that look alike come from different tables or passages of the source.

One data set concerns the target COX-1 (Homo sapiens, UniProt P23219). Briefly: Inhibition of COX-1 (TMPD/arachidonic acid, absorption at 611 nm). The class given is biochemical. The protocol:
Methods: 4 μl of COX-1 was added to 960 μl 0.1 M Tris-HCl in a cell. The mixture was equilibrated for 30s, and then added with 1 μl inhibitor. After 2 min, 15 μl TMPD and 15 μl A.A. were immediately added to the mixture and mixed well. After 7 min, the absorption was measured at 611 nm.

The subject of data set [1] is mouse skin capillary permeability. Briefly: Increment of the mouse skin capillary permeability (xylene, Evans blue). The class given is in vivo. Particulars: OD at 590 nm, blank control 0.442 ± 0.240, lower is better. The text has this:
One hundred and seventy healthy male mice were divided randomly into 17 groups, 10 mice per group, namely, the blank control group, the high, medium, and low dosage groups of 5,6-di(m-acetylphenylamino)-2,3-pyridindione, respectively, the high, medium, and low dosage groups of 5,6-di(m-carboxylphenylamino)-2,3-pyridindione, respectively, the high, medium, and low dosage groups of 5,6-di(p-carboxylphenylamino)-2,3-pyridindione, respectively, the high, medium, and low dosage groups of 5,6-di(p-chlorophenylamino)-2,3-pyridindione, respectively, the high, medium, and low dosage groups of 5,6-di(p-tolylamino)-2,3-pyridindione, and the aspirin group as the positive control group. The mice were administered via gastro infusion according to the Table 5, and 1 hour later, 0.5%. Evans blue saline was injected into the mice via tail vain at 0.1 ml/10 g, then xylene with a dosage of 0.03 ml/mouse was applied to the mice in the shaved area at the middle belly. The mice were killed by cervical dislocation 20 min later, and their belly skin was peeled off, where the blue area was removed by using a biopsy punch, broken up by using surgery scissors, and put into covered glass tubes. Seven milliliters of acetone/water (7:3, v/v) solution was added into each tube, which was then stored in the dark and was gently shaken up 2-3 times daily. After 3 days, the solution in each tube was centrifuged at 2000 rpm for 10 min, and the supernatant was measured for optical density at 590 nm with the absorption of acetone/water (7:3, v/v) solution as the baseline. The lower the OD value, the better the anti-inflammatory effect.

In the next data set the target is T1, COX-2 (Homo sapiens, UniProt P35354).
T1 construct: host or cells: COLO 205
T1 sequence (P35354 18-604): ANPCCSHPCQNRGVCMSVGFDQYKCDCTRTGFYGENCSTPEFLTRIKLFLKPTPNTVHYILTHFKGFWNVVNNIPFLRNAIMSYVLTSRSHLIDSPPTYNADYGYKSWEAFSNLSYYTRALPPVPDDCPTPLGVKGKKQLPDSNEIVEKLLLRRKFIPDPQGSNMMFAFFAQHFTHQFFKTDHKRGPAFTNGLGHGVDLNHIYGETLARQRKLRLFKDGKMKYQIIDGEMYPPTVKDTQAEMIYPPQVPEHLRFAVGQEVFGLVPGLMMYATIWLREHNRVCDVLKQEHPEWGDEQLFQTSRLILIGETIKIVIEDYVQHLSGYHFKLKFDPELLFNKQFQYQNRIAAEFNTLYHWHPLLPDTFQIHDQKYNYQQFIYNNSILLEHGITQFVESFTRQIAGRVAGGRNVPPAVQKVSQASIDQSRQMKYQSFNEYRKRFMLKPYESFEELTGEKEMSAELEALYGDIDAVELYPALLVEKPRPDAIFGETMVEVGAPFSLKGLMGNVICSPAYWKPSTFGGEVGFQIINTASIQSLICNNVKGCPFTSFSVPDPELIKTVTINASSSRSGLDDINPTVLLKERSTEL
Briefly: Inhibition of COX-2 in COLO 205 cell line (Prostaglandin E2 EIA). The class given is cell-based. The text has this: Enzyme-Linked ImmunoSorbent Assay Kit (Prostaglandins E2 (PEG2) EIA Kit-Monoclonal, Cayman Chemical company (U.S.A)).

The test system of a further data set is mice. The conditions noted are these: mouse, in vivo; for Death rate: both, 7 days. On the procedure: Toxicological test of 5,6-di(m-acetylphenylamino)-2,3-pyridindione Single dose administration was used. 5,6-di(m-acetylphenylamino)-2,3-pyridindione was prepared to the required concentration with the presence of 0.5% DMSO. Sixty healthy male mice and 60 healthy female mice were divided randomly into 10 mice per group, 12 groups, among which 5 groups were administered by tail vein injection, and 5 groups were administered via gastro infusion, and the other two groups were used as negative controls. The activities and death of mice were observed and recorded for 7 days after the administration of the compound.

Data set [2] concerns rat model of toe swelling. In words: Rat model of toe swelling (3% formaldehyde). The class given is in vivo. The conditions noted are these: toe volume 2 hours after injection. On the procedure: Forty healthy male rats were divided randomly into 4 groups, 10 rats per group, namely, the blank control group, the 5,6-di(m-acetylphenylamino)-2,3-pyridindione group, the 5,6-di(m-carboxylphenylamino)-2,3-pyridindione group, and the aspirin group as the drug control group. 0.1 ml of inflammation inducer (3% formaldehyde) was subcutaneously injected into the right toe of the hind leg of each rat. After 24 hours, the compounds with dosage listed in Table 1 were injected into the rats, respectively. The volume of the toes was measured 2 hours later after injection by using the Water Volume Method described in the Methodology of Pharmacology Experiments, 2nd edition, Shu-yun Xu, etc., People's Medical Publishing House, Beijing, 1991.

For data set [3], the system named is animal model of anti-histamine. Briefly: Animal model of anti-histamine (Evans blue, dyed back skin). In kind it is in vivo. The conditions noted are these: rat; for Inhibition rate (%): histamine s.c., Evans blue; for Absorbency(A): blank control 0.099. On the procedure:
Forty healthy male rats were divided randomly into 4 groups, […], namely, the blank control group, the 5,6-di(m-acetylphenylamino)-2,3-pyridindione group, the 5,6-di(m-carboxylphenylamino)-2,3-pyridindione group, and the aspirin group as the positive control group. The compounds with dosage listed in Table 3 were administered orally to the rats, respectively, then 0.1 ml of […] was administered subcutaneously, and then 1 ml of 1% Evans blue was immediately injected intravenously under the tongue.

Data set [4] relates to mouse model of auricle swelling. Briefly: Mouse model of auricle swelling (xylene). Particulars: xylene after 60 min, killed 4 hours later. In kind it is in vivo. The protocol: Forty healthy male mice were divided randomly into 4 groups, 10 mice per group, namely, the blank control group, the 5,6-di(m-acetylphenylamino)-2,3-pyridindione group, the 5,6-di(m-carboxylphenylamino)-2,3-pyridindione group, and the aspirin group as the drug control group. The compounds with dosage listed in Table 2 were administered orally to the […], respectively. After 60 min 0.05 ml xylene (analytical grade) was applied on the right ear of each mouse, respectively. The mice were killed 4 hours later, a disk of ear tissue was removed from the same location of both ears using a 5.5-mm biopsy punch, then each of the ear disks was weighed, and the rates of auricle swelling inhibition were calculated, as listed in Table 2.

Setting [5] is: gastro infusion 1.0 mg/kg (low dosage).
[6] abbreviates: gastro infusion 3.2 mg/kg (medium dosage).
Where [7] appears, read: gastro infusion 6.5 mg/kg (high dosage).
Where [8] appears, read: 5 mg/kg injected 24 h after formaldehyde.

Sequence of COX-1 (P23219 24-599): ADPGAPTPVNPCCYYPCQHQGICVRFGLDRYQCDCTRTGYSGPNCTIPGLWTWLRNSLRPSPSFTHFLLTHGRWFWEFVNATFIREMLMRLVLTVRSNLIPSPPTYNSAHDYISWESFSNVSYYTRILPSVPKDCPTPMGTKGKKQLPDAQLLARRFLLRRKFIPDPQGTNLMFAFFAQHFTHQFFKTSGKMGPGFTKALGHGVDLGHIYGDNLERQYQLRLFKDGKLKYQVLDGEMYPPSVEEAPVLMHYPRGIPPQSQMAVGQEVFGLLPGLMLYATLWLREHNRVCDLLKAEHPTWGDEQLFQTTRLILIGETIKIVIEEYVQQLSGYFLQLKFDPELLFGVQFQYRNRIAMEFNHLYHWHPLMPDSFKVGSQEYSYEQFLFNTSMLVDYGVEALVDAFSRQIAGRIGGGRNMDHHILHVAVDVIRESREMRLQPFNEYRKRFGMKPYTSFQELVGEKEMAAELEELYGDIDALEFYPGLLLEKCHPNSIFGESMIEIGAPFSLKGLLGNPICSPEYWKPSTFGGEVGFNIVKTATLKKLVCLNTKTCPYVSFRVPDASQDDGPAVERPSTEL

`CC(=O)c1cccc(NC2=CC(=O)C(=O)N=C2Nc2cccc(C(C)=O)c2)c1` [5,6-di(m-acetylphenylamino)-2,3-pyridindione]: the “inhibition effect on COX-1” value at COX-1 (1 μl of 10 mM inhibitor in dimethylsulfoxide, compared with control group without inhibitors, FIG. 1) is given as “no obvious inhibition effects; also recorded: almost no inhibition effect”. In addition, the entries for the “OD (A)” value in data set [1] (setting [5]), in data set [1] (setting [6]) and in data set [1] (setting [7]) were 0.241 ± 0.121 A, 0.035 ± 0.049 A and 0.019 ± 0.018 A, respectively. Besides, the “inhibition of the activity of COX-2” value on COX-2 (COLO 205 cell line, PGE2 EIA, FIG. 2) was “higher inhibition effects on COX-2 than the former two”. For the same compound, the “inhibition of the growth of the COLO205 cells ex vivo” value on COX-2 (FIG. 2 legend) is “inhibits the growth of the COLO205 cells ex vivo”. Besides, the Death rate in the data set on mice (720 mg/kg), in the data set with mice (1030 mg/kg), with mice (1470 mg/kg), in the data set on mice (2100 mg/kg) and in the data set on mice (3000 mg/kg) was 0 each time. In the data set with mice, the “death of the animals” value is on record as “No death of the animals was observed”. For the same compound, the “toxic reaction in aspect of activity, reactivity, back hair, dejecta” value in the data set on mice is listed as “normal”. The Toxic reaction entry with mice (720 mg/kg), in the data set with mice (1030 mg/kg), with mice (1470 mg/kg), in the data set on mice (2100 mg/kg) and in the data set on mice (3000 mg/kg) was “normal” each time. The “Inhibition rate (%) of toe swelling” value in data set [2] (setting [8]) stood at 62.5%. Also, in data set [3] (10 mg/kg orally), the “Inhibition rate (%)” value stood at 19%. Also, the “Absorbency(A)” value in data set [3] (10 mg/kg orally) came to 0.081 A. Besides, in data set [4] (30 mg/kg orally), the “Inhibition rate (%) of auricle swelling” value came out at 83.2%.
In the case of `O=C1C=C(Nc2ccc(Cl)cc2)C(Nc2ccc(Cl)cc2)=NC1=O` [5,6-di(p-chlorophenylamino)-2,3-pyridindione], the “OD (A)” value in data set [1] (setting [5]) was found to be 0.142 ± 0.098 A; in data set [1] (setting [6]) it was 0.035 ± 0.026 A; in data set [1] (setting [7]) it was 0.015 ± 0.015 A.
In the case of `CC(=O)Oc1ccccc1C(=O)O` [Aspirin, reference compound], the “inhibition effect on COX-1” value against COX-1 is reported as “inhibited”. In addition, the “Inhibition rate (%) of toe swelling” value in data set [2] (50 mg/kg injected 24 h after formaldehyde) is on record as 10.1%. In addition, in data set [3] (160 mg/kg orally), the “Inhibition rate (%)” value was determined as 13% and the “Absorbency(A)” value amounted to 0.086 A. Also, the “Inhibition rate (%) of auricle swelling” value in data set [4] (100 mg/kg orally) is 30.1%.
Turning to `Cc1ccc(NC2=CC(=O)C(=O)N=C2Nc2ccc(C)cc2)cc1` [5,6-di(p-tolylamino)-2,3-pyridindione], the “OD (A)” value in data set [1] (setting [5]) worked out at 0.049 ± 0.049 A; in data set [1] (setting [6]), 0.011 ± 0.022 A; in data set [1] (setting [7]), 0.051 ± 0.042 A.
Regarding `O=C1C=C(Nc2ccc(C(=O)O)cc2)C(Nc2ccc(C(=O)O)cc2)=NC1=O` [5,6-di(p-carboxylphenylamino)-2,3-pyridindione], the “OD (A)” value in data set [1] (setting [5]) amounted to 0.089 ± 0.054 A; in data set [1] (setting [6]), 0.043 ± 0.023 A; in data set [1] (setting [7]), 0.030 ± 0.012 A.
For `O=C1C=C(Nc2cccc(C(=O)O)c2)C(Nc2cccc(C(=O)O)c2)=NC1=O` [5,6-di(m-carboxylphenylamino)-2,3-pyridindione], the “OD (A)” value is recorded as 0.038 ± 0.026 A in data set [1] (setting [5]), 0.030 ± 0.010 A in data set [1] (setting [6]) and 0.036 ± 0.011 A in data set [1] (setting [7]). Further, the “Inhibition rate (%) of toe swelling” value in data set [2] (setting [8]) was 45.5%. Moreover, the “Inhibition rate (%)” value in data set [3] (10 mg/kg orally) is given as 16%. For the same compound, in data set [3] (10 mg/kg orally), the “Absorbency(A)” value is 0.084 A. Further, in data set [4] (30 mg/kg orally), the “Inhibition rate (%) of auricle swelling” value is on record as 65.5%.
